Tests used:
[1] = tested on: winter oilseed rape (Brassica napus, BRSNW); assay: Example 4 field trials (Europe), postemergence crop safety, visual phytotoxicity; conditions: for Mean % Visual Injury / Mean % Visual Deformation: alone or mixed
[2] = tested on: kale/Chinese kale (Brassica alboglabra, BRSAG); assay: Example 5 greenhouse trials, postemergence visual injury; conditions: for % Visual Injury Obs / Visual Injury Obs: BRSAG
[3] = tested on: turnip or Polish canola (Brassica rapa, BRSRR); assay: as above; conditions: for % Visual Injury Obs / Visual Injury Obs: BRSRR
[4] = tested on: winter oilseed rape (Brassica napus, BRSNW); assay: as above; conditions: for % Visual Injury Obs / Visual Injury Obs: BRSNW
[5] = tested on: Roundup Ready® canola (Brassica napus, RR-BRSNN); assay: as above; conditions: for % Visual Injury Obs / Visual Injury Obs: RR-BRSNN
[6] = tested on: Aparima Gold swede (Brassica sp., BRSSS); assay: Example 2 field trials (Canterbury, New Zealand), postemergence crop safety, visual phytotoxicity
[7] = tested on: Aparima Gold swede (Brassica sp., BRSSS); assay: Example 1 pot trials, postemergence crop safety, visual phytotoxicity
[8] = 6DAA1, halauxifen-methyl 5, clopyralid-olamine 120 g ae/ha
[9] = 7DAA1, halauxifen-methyl 5, clopyralid-olamine 120 g ae/ha
[10] = 19DAA1, halauxifen-methyl 5, clopyralid-olamine 120 g ae/ha
[11] = Trial 1, 27DAA1, halauxifen-methyl 5, clopyralid-olamine 120 g ae/ha
[12] = Trial 2, 6DAA1, halauxifen-methyl 5, clopyralid-olamine 120 g ae/ha
[13] = Trial 2, 7DAA1, halauxifen-methyl 5, clopyralid-olamine 120 g ae/ha
[14] = halauxifen-methyl alone 2.5 g ai/ha
[15] = halauxifen-methyl alone 5 g ai/ha
[16] = halauxifen-methyl alone 10 g ai/ha

O=C(O)c1nc(Cl)ccc1Cl [Clopyralid-olamine, 2-hydroxyethanaminium 3,6-dichloro-2-pyridinecarboxylate]
Mean % Visual Injury [1, 8]: 1% | Mean % Visual Injury [1, 9]: 1% | Mean % Visual Injury [1, 10]: 1% | Mean % Visual Growth Inhibition ([1]; 85DAA1, 120 g ae/ha alone): 3.8% | Mean % Visual Deformation [1, 11]: 23.8% | Mean % Visual Deformation [1, 12]: 1.0% | Mean % Visual Deformation [1, 13]: 1.0% | % Visual Injury Obs ([2]; 50 g ai/ha alone, 20-22 d): 0% | % Visual Injury Obs ([2]; 100 g ai/ha alone, 20-22 d): 0% | % Visual Injury Obs ([2]; 200 g ai/ha alone, 20-22 d): 0% | % Visual Injury Obs ([3]; 50 g ai/ha alone, 20-22 d): 0% | % Visual Injury Obs ([3]; 100 g ai/ha alone, 20-22 d): 0% | % Visual Injury Obs ([3]; 200 g ai/ha alone, 20-22 d): 0% | % Visual Injury Obs ([4]; 50 g ai/ha alone, 20-22 d): 0% | % Visual Injury Obs ([4]; 100 g ai/ha alone, 20-22 d): 0% | % Visual Injury Obs ([4]; 200 g ai/ha alone, 20-22 d): 0% | % Visual Injury Obs ([5]; 50 g ai/ha alone, 20-22 d): 0% | % Visual Injury Obs ([5]; 100 g ai/ha alone, 20-22 d): 0% | % Visual Injury Obs ([5]; 200 g ai/ha alone, 20-22 d): 0%

COC(=O)c1nc(-c2ccc(Cl)c(OC)c2F)cc(N)c1Cl [Halauxifen-methyl, methyl 4-amino-3-chloro-6-(4-chloro-2-fluoro-3-methoxyphenyl)-2-pyridineccarboxylate]
Mean % Visual Injury [1, 8]: 1% | Mean % Visual Injury [1, 9]: 1% | Mean % Visual Injury [1, 10]: 1% | Mean % Visual Growth Inhibition ([1]; 85DAA1, 5 g ae/ha alone): 5.0% | Mean % Visual Deformation [1, 11]: 0% | Mean % Visual Deformation [1, 12]: 1% | Mean % Visual Deformation [1, 13]: 1% | Mean % Visual Growth Inhibition ([6]; 22DAA1, 7.5 g ae/ha): 25.0% | Mean % Visual Injury ([6]; 22DAA1, 7.5 g ae/ha): 32.5% | Mean % Visual Growth Inhibition ([6]; 28DAA1, 3.75 g ae/ha): 15.0% | Mean % Visual Injury ([6]; 28DAA1, 3.75 g ae/ha): 10.0% | Mean % Visual Growth Inhibition ([6]; 28DAA1, 7.5 g ae/ha): 22.5% | Mean % Visual Injury ([6]; 28DAA1, 7.5 g ae/ha): 27.5% | Mean % Visual Growth Inhibition ([6]; 56DAA1, 7.5 g ae/ha): 23.8% | % Visual Injury Obs ([2]; 2.5 g ai/ha alone, 20-22 d): 6% | % Visual Injury Obs ([2]; 5 g ai/ha alone, 20-22 d): 10% | % Visual Injury Obs ([2]; 10 g ai/ha alone, 20-22 d): 16% | % Visual Injury Obs ([2]; halauxifen-methyl 2.5 g ai/ha): 6% | Visual Injury Obs ([2]; halauxifen-methyl 2.5 g ai/ha): 6% | % Visual Injury Obs ([2]; halauxifen-methyl 5 g ai/ha): 10% | Visual Injury Obs ([2]; halauxifen-methyl 5 g ai/ha): 10% | % Visual Injury Obs ([2]; halauxifen-methyl 10 g ai/ha): 16% | Visual Injury Obs ([2]; halauxifen-methyl 10 g ai/ha): 16% | Percent (%) Visual Injury BRSAG Obs [2, 14]: 6% | Percent (%) Visual Injury BRSAG Obs [2, 15]: 10% | Percent (%) Visual Injury BRSAG Obs [2, 16]: 16% | % Visual Injury Obs ([3]; 2.5 g ai/ha alone, 20-22 d): 5% | % Visual Injury Obs ([3]; 5 g ai/ha alone, 20-22 d): 6% | % Visual Injury Obs ([3]; 10 g ai/ha alone, 20-22 d): 10% | % Visual Injury Obs ([3]; halauxifen-methyl 2.5 g ai/ha): 5% | Visual Injury Obs ([3]; halauxifen-methyl 2.5 g ai/ha): 5% | % Visual Injury Obs ([3]; halauxifen-methyl 5 g ai/ha): 6% | Visual Injury Obs ([3]; halauxifen-methyl 5 g ai/ha): 6% | % Visual Injury Obs ([3]; halauxifen-methyl 10 g ai/ha): 10% | Visual Injury Obs ([3]; halauxifen-methyl 10 g ai/ha): 10% | Percent (%) Visual Injury BRSRR Obs [3, 14]: 5% | Percent (%) Visual Injury BRSRR Obs [3, 15]: 6% | Percent (%) Visual Injury BRSRR Obs [3, 16]: 10% | % Visual Injury Obs ([4]; 2.5 g ai/ha alone, 20-22 d): 7% | % Visual Injury Obs ([4]; 5 g ai/ha alone, 20-22 d): 10% | % Visual Injury Obs ([4]; 10 g ai/ha alone, 20-22 d): 14% | % Visual Injury Obs ([4]; halauxifen-methyl 2.5 g ai/ha): 7% | Visual Injury Obs ([4]; halauxifen-methyl 2.5 g ai/ha): 7% | % Visual Injury Obs ([4]; halauxifen-methyl 5 g ai/ha): 10% | Visual Injury Obs ([4]; halauxifen-methyl 5 g ai/ha): 10% | % Visual Injury Obs ([4]; halauxifen-methyl 10 g ai/ha): 14% | Visual Injury Obs ([4]; halauxifen-methyl 10 g ai/ha): 14% | Percent (%) Visual Injury BRSNW Obs [4, 14]: 7% | Percent (%) Visual Injury BRSNW Obs [4, 15]: 10% | Percent (%) Visual Injury BRSNW Obs [4, 16]: 14% | Mean % Visual Injury ([7]; 3DAA1, 15 g ae/ha): 14.4% | Mean % Visual Injury ([7]; 7DAA1, 15 g ae/ha): 16.2% | Mean % Visual Injury ([7]; 15DAA1, 15 g ae/ha): 16.2% | Mean % Visual Injury ([7]; 28DAA1, 15 g ae/ha): 39.0% | % Visual Injury Obs ([5]; 2.5 g ai/ha alone, 20-22 d): 11% | % Visual Injury Obs ([5]; 5 g ai/ha alone, 20-22 d): 14% | % Visual Injury Obs ([5]; 10 g ai/ha alone, 20-22 d): 21% | % Visual Injury Obs ([5]; halauxifen-methyl 2.5 g ai/ha): 11% | Visual Injury Obs ([5]; halauxifen-methyl 2.5 g ai/ha): 11% | % Visual Injury Obs ([5]; halauxifen-methyl 5 g ai/ha): 14% | Visual Injury Obs ([5]; halauxifen-methyl 5 g ai/ha): 14% | % Visual Injury Obs ([5]; halauxifen-methyl 10 g ai/ha): 21% | Visual Injury Obs ([5]; halauxifen-methyl 10 g ai/ha): 21% | Percent (%) Visual Injury RR-BRSNN Obs [5, 14]: 11% | Percent (%) Visual Injury RR-BRSNN Obs [5, 15]: 14% | Percent (%) Visual Injury RR-BRSNN Obs [5, 16]: 21%

From patent US20170354148A1, “SAFENED HERBICIDAL COMPOSITIONS CONTAINING HALAUXIFEN AND METHODS OF USE THEREOF IN BRASSICA SPECIES” (Dow AgroSciences LLC, priority 2016, published 2017)
